Measured values as given in ChEMBL document CHEMBL3797052 (Eur J Med Chem, 2016).

System: not listed separately
Test: Antiproliferative activity against human BT549 cells assessed as cell growth at 10^-8 M after 48 hrs by sulforhodamine B assay
Type: functional
Settings: BT-549, 48 h, read-out: Activity

Compound | growth at 0.01 µM [%]
CNC(=O)c1cc(Oc2ccc3nc(NC(=O)Nc4ccc(Cl)c(C(F)(F)F)c4)sc3c2)ccn1 | 95

System: not listed separately
Test: Antiproliferative activity against human RPMI8226 cells assessed as cell growth at 10^-7 M after 48 hrs by sulforhodamine B assay
Type: functional
Settings: RPMI-8226, 48 h, read-out: Activity

Compound | growth at 0.1 µM [%]
CNC(=O)c1cc(Oc2ccc3nc(NC(=O)Nc4ccc(Cl)c(C(F)(F)F)c4)sc3c2)ccn1 | 101

System: not listed separately
Test: Antiproliferative activity against human COLO205 cells assessed as cell growth at 10^-7 M after 48 hrs by sulforhodamine B assay
Type: functional
Settings: COLO 205, 48 h, read-out: Activity

Compound | growth at 0.1 µM [%]
CNC(=O)c1cc(Oc2ccc3nc(NC(=O)Nc4ccc(Cl)c(C(F)(F)F)c4)sc3c2)ccn1 | 106

System: not listed separately
Test: Antiproliferative activity against human SF268 cells assessed as cell growth at 10^-7 M after 48 hrs by sulforhodamine B assay
Type: functional
Settings: SF-268, 48 h, read-out: Activity

Compound | growth at 0.1 µM [%]
CNC(=O)c1cc(Oc2ccc3nc(NC(=O)Nc4ccc(Cl)c(C(F)(F)F)c4)sc3c2)ccn1 | 101

System: not listed separately
Test: Antiproliferative activity against human SF295 cells assessed as cell growth at 10^-7 M after 48 hrs by sulforhodamine B assay
Type: functional
Settings: SF-295, 48 h, read-out: Activity

Compound | growth at 0.1 µM [%]
CNC(=O)c1cc(Oc2ccc3nc(NC(=O)Nc4ccc(Cl)c(C(F)(F)F)c4)sc3c2)ccn1 | 88

System: not listed separately
Test: Antiproliferative activity against human SNB19 cells assessed as cell growth at 10^-7 M after 48 hrs by sulforhodamine B assay
Type: functional
Settings: SNB-19, 48 h, read-out: Activity

Compound | growth at 0.1 µM [%]
CNC(=O)c1cc(Oc2ccc3nc(NC(=O)Nc4ccc(Cl)c(C(F)(F)F)c4)sc3c2)ccn1 | 100

System: not listed separately
Test: Antiproliferative activity against human SNB75 cells assessed as cell growth at 10^-7 M after 48 hrs by sulforhodamine B assay
Type: functional
Settings: SNB-75, 48 h, read-out: Activity

Compound | growth at 0.1 µM [%]
CNC(=O)c1cc(Oc2ccc3nc(NC(=O)Nc4ccc(Cl)c(C(F)(F)F)c4)sc3c2)ccn1 | 81

System: not listed separately
Test: Antiproliferative activity against human BT549 cells assessed as cell growth at 10^-4 M after 48 hrs by sulforhodamine B assay
Type: functional
Settings: BT-549, 48 h, read-out: Activity

Compound | growth at 100 µM [%]
CNC(=O)c1cc(Oc2ccc3nc(NC(=O)Nc4ccc(Cl)c(C(F)(F)F)c4)sc3c2)ccn1 | -6

System: not listed separately
Test: Antiproliferative activity against human UACC62 cells assessed as growth inhibition after 48 hrs by sulforhodamine B assay
Type: functional
Settings: UACC-62, 48 h

Compound | GI50 [µM]
CNC(=O)c1cc(Oc2ccc3nc(NC(=O)Nc4ccc(Cl)c(C(F)(F)F)c4)sc3c2)ccn1 | 2.06

Same assay, conditions: UACC-62, 48 h, read-out: LC50 (the source's name)

Compound | CC50 [µM]
CNC(=O)c1cc(Oc2ccc3nc(NC(=O)Nc4ccc(Cl)c(C(F)(F)F)c4)sc3c2)ccn1 | > 100

System: M14
Test: Antiproliferative activity against human M14 cells assessed as growth inhibition after 48 hrs by sulforhodamine B assay
Type: functional
Settings: M14, 48 h

Compound | GI50 [µM]
CNC(=O)c1cc(Oc2ccc3nc(NC(=O)Nc4ccc(Cl)c(C(F)(F)F)c4)sc3c2)ccn1 | 1.96

Same assay, conditions: M14, 48 h, read-out: LC50 (the source's name)

Compound | CC50 [µM]
CNC(=O)c1cc(Oc2ccc3nc(NC(=O)Nc4ccc(Cl)c(C(F)(F)F)c4)sc3c2)ccn1 | > 100

System: not listed separately
Test: Antiproliferative activity against human LOXIMVI cells assessed as cell growth at 10^-7 M after 48 hrs by sulforhodamine B assay
Type: functional
Settings: LOX IMVI, read-out: Activity

Compound | growth at 0.1 µM [%]
CNC(=O)c1cc(Oc2ccc3nc(NC(=O)Nc4ccc(Cl)c(C(F)(F)F)c4)sc3c2)ccn1 | 102

System: 786-0
Test: Antiproliferative activity against human 786-0 cells assessed as cell growth at 10^-7 M after 48 hrs by sulforhodamine B assay
Type: functional
Settings: 786-0, 48 h, read-out: Activity

Compound | growth at 0.1 µM [%]
CNC(=O)c1cc(Oc2ccc3nc(NC(=O)Nc4ccc(Cl)c(C(F)(F)F)c4)sc3c2)ccn1 | 101

System: not listed separately
Test: Antiproliferative activity against human TK10 cells assessed as cell growth at 10^-7 M after 48 hrs by sulforhodamine B assay
Type: functional
Settings: TK-10, 48 h, read-out: Activity

Compound | growth at 0.1 µM [%]
CNC(=O)c1cc(Oc2ccc3nc(NC(=O)Nc4ccc(Cl)c(C(F)(F)F)c4)sc3c2)ccn1 | 105

System: not listed separately
Test: Antiproliferative activity against human HCT116 cells assessed as growth inhibition after 48 hrs by sulforhodamine B assay
Type: functional
Settings: HCT-116, 48 h

Compound | GI50 [µM] | LC50 (concentration killing 50% of the starting cells) [µM] | TGI [µM]
CNC(=O)c1cc(Oc2ccc3nc(NC(=O)Nc4ccc(Cl)c(C(F)(F)F)c4)sc3c2)ccn1 | 1.89 | > 100 | 5.39

System: NCI-H322M
Test: Antiproliferative activity against human NCI-H322M cells assessed as growth inhibition after 48 hrs by sulforhodamine B assay
Type: functional
Settings: not given

Compound | GI50 [µM] | LC50 (50% lethal concentration) [µM]
CNC(=O)c1cc(Oc2ccc3nc(NC(=O)Nc4ccc(Cl)c(C(F)(F)F)c4)sc3c2)ccn1 | 2.62 | > 100

System: NCI-H23
Test: Antiproliferative activity against human NCI-H23 cells assessed as growth inhibition after 48 hrs by sulforhodamine B assay
Type: functional
Settings: NCI-H23, 48 h

Compound | GI50 [µM] | LC50 [µM] | TGI [µM]
CNC(=O)c1cc(Oc2ccc3nc(NC(=O)Nc4ccc(Cl)c(C(F)(F)F)c4)sc3c2)ccn1 | 2.48 | > 100 | 8.17

System: not listed separately
Test: Antiproliferative activity against human HOP92 cells assessed as growth inhibition after 48 hrs by sulforhodamine B assay
Type: functional
Settings: HOP-92, 48 h

Compound | GI50 [µM] | LC50 [µM] | TGI [µM]
CNC(=O)c1cc(Oc2ccc3nc(NC(=O)Nc4ccc(Cl)c(C(F)(F)F)c4)sc3c2)ccn1 | 1.15 | 9.12 | 3.24

Target: hERG (KCNH2) (Homo sapiens, UniProt Q12809)
Sequence (Q12809 whole entry): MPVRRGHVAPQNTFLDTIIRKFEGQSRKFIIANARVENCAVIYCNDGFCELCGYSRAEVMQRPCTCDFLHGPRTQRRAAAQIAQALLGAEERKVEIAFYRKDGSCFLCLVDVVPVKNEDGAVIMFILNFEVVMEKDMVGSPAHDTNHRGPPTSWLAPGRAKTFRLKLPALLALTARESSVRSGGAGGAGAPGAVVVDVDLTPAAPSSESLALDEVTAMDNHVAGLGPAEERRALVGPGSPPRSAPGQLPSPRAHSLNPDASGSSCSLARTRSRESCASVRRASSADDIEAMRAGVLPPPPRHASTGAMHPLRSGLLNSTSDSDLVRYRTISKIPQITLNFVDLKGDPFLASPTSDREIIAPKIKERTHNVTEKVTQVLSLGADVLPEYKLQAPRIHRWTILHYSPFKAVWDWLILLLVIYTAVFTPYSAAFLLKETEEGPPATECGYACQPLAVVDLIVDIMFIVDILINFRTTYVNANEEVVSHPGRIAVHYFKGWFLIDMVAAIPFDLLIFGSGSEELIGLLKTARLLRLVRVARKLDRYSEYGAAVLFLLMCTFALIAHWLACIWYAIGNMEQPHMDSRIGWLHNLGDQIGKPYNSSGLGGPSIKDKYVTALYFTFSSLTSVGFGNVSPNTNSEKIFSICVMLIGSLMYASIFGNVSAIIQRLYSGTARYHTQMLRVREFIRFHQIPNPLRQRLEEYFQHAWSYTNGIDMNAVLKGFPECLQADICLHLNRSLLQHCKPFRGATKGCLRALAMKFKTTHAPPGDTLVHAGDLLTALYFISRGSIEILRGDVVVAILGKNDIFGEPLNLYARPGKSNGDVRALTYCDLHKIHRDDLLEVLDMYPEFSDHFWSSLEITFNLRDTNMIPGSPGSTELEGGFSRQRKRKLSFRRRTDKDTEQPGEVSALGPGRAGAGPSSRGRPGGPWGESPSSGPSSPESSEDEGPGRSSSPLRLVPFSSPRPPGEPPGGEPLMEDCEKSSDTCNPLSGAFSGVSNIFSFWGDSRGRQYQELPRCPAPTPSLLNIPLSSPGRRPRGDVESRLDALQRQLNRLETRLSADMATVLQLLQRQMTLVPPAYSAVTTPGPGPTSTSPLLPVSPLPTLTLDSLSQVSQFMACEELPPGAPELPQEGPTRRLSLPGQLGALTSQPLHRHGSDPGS
Test: Inhibition of human ERG assessed as reduction in channel current at 100 uM by automated patch-clamp electrophysiology assay
Settings: not given

Compound | inhibition at 100 µM [%]
CNC(=O)c1cc(Oc2ccc3nc(NC(=O)Nc4ccc(Cl)c(C(F)(F)F)c4)sc3c2)ccn1 | 26.2

System: not listed separately
Test: Antiproliferative activity against human SW620 cells assessed as cell growth at […] M after 48 hrs by sulforhodamine B assay
Type: functional
Settings: SW-620, 48 h, read-out: Activity

Compound | growth at 0.01 µM [%]
CNC(=O)c1cc(Oc2ccc3nc(NC(=O)Nc4ccc(Cl)c(C(F)(F)F)c4)sc3c2)ccn1 | 100

System: not listed separately
Test: Antiproliferative activity against human MOLT4 cells assessed as cell growth at 10^-6 M after 48 hrs by sulforhodamine B assay
Type: functional
Settings: MOLT-4, 48 h, read-out: Activity

Compound | growth at 1 µM [%]
CNC(=O)c1cc(Oc2ccc3nc(NC(=O)Nc4ccc(Cl)c(C(F)(F)F)c4)sc3c2)ccn1 | 95

System: not listed separately
Test: Antiproliferative activity against human HOP92 cells assessed as cell growth at 10^-6 M after 48 hrs by sulforhodamine B assay
Type: functional
Settings: HOP-92, 48 h, read-out: Activity

Compound | growth at 1 µM [%]
CNC(=O)c1cc(Oc2ccc3nc(NC(=O)Nc4ccc(Cl)c(C(F)(F)F)c4)sc3c2)ccn1 | 57

System: not listed separately
Test: Antiproliferative activity against human HCC2998 cells assessed as cell growth at 10^-6 M after 48 hrs by sulforhodamine B assay
Type: functional
Settings: HCC 2998, 48 h, read-out: Activity

Compound | growth at 1 µM [%]
CNC(=O)c1cc(Oc2ccc3nc(NC(=O)Nc4ccc(Cl)c(C(F)(F)F)c4)sc3c2)ccn1 | 94

System: not listed separately
Test: Antiproliferative activity against human HOP92 cells assessed as cell growth at 10^-4 M after 48 hrs by sulforhodamine B assay
Type: functional
Settings: HOP-92, 48 h, read-out: Activity

Compound | growth at 100 µM [%]
CNC(=O)c1cc(Oc2ccc3nc(NC(=O)Nc4ccc(Cl)c(C(F)(F)F)c4)sc3c2)ccn1 | -64

System: NCI-H23
Test: Antiproliferative activity against human NCI-H23 cells assessed as cell growth at 10^-4 M after 48 hrs by sulforhodamine B assay
Type: functional
Settings: NCI-H23, 48 h, read-out: Activity

Compound | growth at 100 µM [%]
CNC(=O)c1cc(Oc2ccc3nc(NC(=O)Nc4ccc(Cl)c(C(F)(F)F)c4)sc3c2)ccn1 | -40

System: U-251
Test: Antiproliferative activity against human U251 cells assessed as cell growth at 10^-4 M after 48 hrs by sulforhodamine B assay
Type: functional
Settings: U-251, 48 h, read-out: Activity

Compound | growth at 100 µM [%]
CNC(=O)c1cc(Oc2ccc3nc(NC(=O)Nc4ccc(Cl)c(C(F)(F)F)c4)sc3c2)ccn1 | -34

System: Malme-3M
Test: Antiproliferative activity against human MALME-3M cells assessed as cell growth at 10^-4 M after 48 hrs by sulforhodamine B assay
Type: functional
Settings: read-out: Activity

Compound | growth at 100 µM [%]
CNC(=O)c1cc(Oc2ccc3nc(NC(=O)Nc4ccc(Cl)c(C(F)(F)F)c4)sc3c2)ccn1 | -48

System: SK-MEL-28
Test: Antiproliferative activity against human SK-MEL-28 cells assessed as cell growth at 10^-8 M after 48 hrs by sulforhodamine B assay
Type: functional
Settings: SK-MEL-28, 48 h, read-out: Activity

Compound | growth at 0.01 µM [%]
CNC(=O)c1cc(Oc2ccc3nc(NC(=O)Nc4ccc(Cl)c(C(F)(F)F)c4)sc3c2)ccn1 | 92

System: MDA-MB-231
Test: Antiproliferative activity against human MDA-MB-231 cells assessed as cell growth at 10^-8 M after 48 hrs by sulforhodamine B assay
Type: functional
Settings: MDA-MB-231, 48 h, read-out: Activity

Compound | growth at 0.01 µM [%]
CNC(=O)c1cc(Oc2ccc3nc(NC(=O)Nc4ccc(Cl)c(C(F)(F)F)c4)sc3c2)ccn1 | 115

System: not listed separately
Test: Antiproliferative activity against human Hs 578T cells assessed as cell growth at 10^-8 M after 48 hrs by sulforhodamine B assay
Type: functional
Settings: read-out: Activity

Compound | growth at 0.01 µM [%]
CNC(=O)c1cc(Oc2ccc3nc(NC(=O)Nc4ccc(Cl)c(C(F)(F)F)c4)sc3c2)ccn1 | 92

System: not listed separately
Test: Antiproliferative activity against human UACC62 cells assessed as cell growth at 10^-6 M after 48 hrs by sulforhodamine B assay
Type: functional
Settings: UACC-62, 48 h, read-out: Activity

Compound | growth at 1 µM [%]
CNC(=O)c1cc(Oc2ccc3nc(NC(=O)Nc4ccc(Cl)c(C(F)(F)F)c4)sc3c2)ccn1 | 83

System: not listed separately
Test: Antiproliferative activity against human Caki1 cells assessed as cell growth at 10^-6 M after 48 hrs by sulforhodamine B assay
Type: functional
Settings: CAKI-1, 48 h, read-out: Activity

Compound | growth at 1 µM [%]
CNC(=O)c1cc(Oc2ccc3nc(NC(=O)Nc4ccc(Cl)c(C(F)(F)F)c4)sc3c2)ccn1 | 95

System: SN12C
Test: Antiproliferative activity against human SN12C cells assessed as cell growth at 10^-6 M after 48 hrs by sulforhodamine B assay
Type: functional
Settings: read-out: Activity

Compound | growth at 1 µM [%]
CNC(=O)c1cc(Oc2ccc3nc(NC(=O)Nc4ccc(Cl)c(C(F)(F)F)c4)sc3c2)ccn1 | 81

System: SK-MEL-5
Test: Antiproliferative activity against human SK-MEL-5 cells assessed as cell growth at 10^-4 M after 48 hrs by sulforhodamine B assay
Type: functional
Settings: SK-MEL-5, 48 h, read-out: Activity

Compound | growth at 100 µM [%]
CNC(=O)c1cc(Oc2ccc3nc(NC(=O)Nc4ccc(Cl)c(C(F)(F)F)c4)sc3c2)ccn1 | 57

System: not listed separately
Test: Antiproliferative activity against human OVCAR3 cells assessed as cell growth at 10^-4 M after 48 hrs by sulforhodamine B assay
Type: functional
Settings: OVCAR-3, 48 h, read-out: Activity

Compound | growth at 100 µM [%]
CNC(=O)c1cc(Oc2ccc3nc(NC(=O)Nc4ccc(Cl)c(C(F)(F)F)c4)sc3c2)ccn1 | -14

System: not listed separately
Test: Antiproliferative activity against human OVCAR4 cells assessed as cell growth at 10^-4 M after 48 hrs by sulforhodamine B assay
Type: functional
Settings: OVCAR-4, 48 h, read-out: Activity

Compound | growth at 100 µM [%]
CNC(=O)c1cc(Oc2ccc3nc(NC(=O)Nc4ccc(Cl)c(C(F)(F)F)c4)sc3c2)ccn1 | -15
